Data on 20 compounds can be found in ChEMBL document CHEMBL1208723, “Synthesis and activity of polyacetylene substituted 2-hydroxy acids, esters, and amides against microbes of clinical importance” (Bioorg Med Chem Lett, 2010).

Assay [1] deals with Candida albicans. Put plainly: Antifungal activity against Candida albicans. It is filed as functional, organism-based.
For assay [2], the system named is Nakaseomyces glabratus. The experiment in a line: Antifungal activity against Candida glabrata. In kind it is functional, organism-based.
Assay [3] relates to Candida tropicalis. Put plainly: Antifungal activity against Candida tropicalis. It is filed as functional, organism-based.
In assay [4] the test system is Pichia kudriavzevii. Put plainly: Antifungal activity against Candida krusei. It is filed as functional, organism-based.
Assay [5] has as its system Candida parapsilosis. The experiment in a line: Antifungal activity against Candida parapsilosis. In kind it is functional, organism-based.
In assay [6] the test system is Staphylococcus aureus. The experiment in a line: Antibacterial activity against Staphylococcus aureus ATCC 25923. It is filed as functional.
For assay [7], the system named is Pseudomonas aeruginosa. The experiment in a line: Antibacterial activity against Pseudomonas aeruginosa ATCC 27853. In kind it is functional.
Assay [8] concerns Escherichia coli. Put plainly: Antibacterial activity against Escherichia coli ATCC 25922. In kind it is functional.
Assay [9] has as its system Streptococcus pyogenes. Put plainly: Antibacterial activity against Streptococcus pyogenes ATCC 19615. It is filed as functional.
Assay [10] has as its system Staphylococcus aureus. The experiment in a line: Antibacterial activity against methicillin-resistant Staphylococcus aureus. It is filed as functional.
The mark [11] stands for this setting: Nakaseomyces glabratus, read-out: IC50.
[12] abbreviates: Lodderomyces parapsilosis, read-out: IC50.
The mark [13] stands for this setting: Candida albicans, read-out: IC50.
[14] abbreviates: Candida tropicalis, read-out: IC50.
[15] abbreviates: Pichia kudriavzevii, read-out: IC50.

The structures appear in SMILES notation.

In the case of `CCCCCC/C=C\C#CC#CCCCCC(O)C(=O)OC` (stereo not drawn), the 50% inhibitory concentration (IC50) result was “Not Active” in [1]; 1000 µM in assay [2] (setting [11]); “Not Active” in assay [3]; “Not Active” in assay [4]; 30 µM in assay [5] (setting [12]). The “inhibition (INH)” value in assay [6] was 50%; in assay [7], greater than 75%; in [8] it was 25%; in [9] it was greater than 75%; in [10], greater than 75%.
`CCCC#C/C=C\C#CCCCCCC(O)C(=O)OCCCc1ccccc1` (stereo not drawn): the IC50 result in assay [1], in assay [2], in assay [3], in assay [4] and in [5] was “Not Active” throughout. The “inhibition (INH)” value is recorded as 25% in [6]; greater than 75% in assay [7]; 50% in [8]; greater than 75% in [9]; 25% in assay [10].
Regarding `CCCCC#CC#C/C=C/CCCCCCC(O)C(=O)OC(C)C` (stereo not drawn), the IC50 entry in assay [1], in assay [2], in assay [3], in assay [4] and in assay [5] was “Not Active” each time. The “inhibition (INH)” value in assay [6] was 25%; in assay [7], greater than 75%; in [8] it was 50%; in [9] it was greater than 75%; in assay [10], 50%.
Turning to `CCCCC#CC#C/C=C/CCCCCCC(O)C(=O)NCc1ccccc1` (stereo not drawn), the IC50 result in assay [1], in assay [2], in assay [3], in [4] and in [5] was “Not Active” in each case. For the same compound, the “inhibition (INH)” value is on record as 25% in [6]; greater than 75% in assay [7]; 50% in [8]; greater than 75% in assay [9]; 50% in assay [10].
Regarding `CCCC/C=C\C#CC#CCCCCCC(O)C(=O)NCC(C)C` (stereo not drawn), the IC50 entry in [1], in assay [2], in assay [3], in assay [4] and in assay [5] was “Not Active” each time. In addition, the “inhibition (INH)” value is 50% in assay [6]; greater than 75% in assay [7]; 50% in [8]; greater than 75% in [9]; greater than 75% in [10].
`CCCCCC#C/C=C\C#CC[C@@H]1O[C@](C)(OC)[C@@](C)(OC)OC1=O`: the IC50 entry in assay [1], in assay [2], in assay [3], in [4] and in assay [5] was “Not Active” throughout. Also, the “inhibition (INH)” value was 25% in assay [6]; greater than 75% in [7]; 50% in assay [8]; greater than 75% in assay [9]; 25% in assay [10].
Turning to `CCCC#C/C=C\C#CCCCCC[C@@H]1O[C@](C)(OC)[C@@](C)(OC)OC1=O`, the IC50 entry in assay [1], in assay [2], in assay [3], in [4] and in [5] was “Not Active” throughout. Also, the “inhibition (INH)” value in assay [6] is 25%; in [7], greater than 75%; in assay [8], 50%; in assay [9], greater than 75%; in assay [10] it was 25%.
For `CCCCC#CC#C/C=C/CCCCCC[C@@H]1O[C@](C)(OC)[C@@](C)(OC)OC1=O`, the IC50 entry in assay [1], in assay [2], in assay [3], in assay [4] and in assay [5] was “Not Active” throughout. For the same compound, the “inhibition (INH)” value is 25% in assay [6]; greater than 75% in assay [7]; 50% in assay [8]; greater than 75% in assay [9]; 25% in [10].
As for `CCCCC/C=C\C#CC#CCCCCC[C@@H]1O[C@](C)(OC)[C@@](C)(OC)OC1=O`, the IC50 result in assay [1], in assay [2], in [3], in assay [4] and in assay [5] was “Not Active” throughout. Besides, the “inhibition (INH)” value in assay [6] is reported as 50%; in [7] it was greater than 75%; in [8] it was 50%; in assay [9], greater than 75%; in assay [10], 25%.
As to `CCCC#CC#CC#CCCCCC[C@@H]1O[C@](C)(OC)[C@@](C)(OC)OC1=O`, the IC50 entry in assay [1], in assay [2], in assay [3], in [4] and in [5] was “Not Active” in each case. Besides, the “inhibition (INH)” value is recorded as 50% in assay [6]; greater than 75% in assay [7]; greater than 75% in assay [8]; greater than 75% in assay [9]; 25% in assay [10].
Regarding `O=C(O)C(O)CCCCCCC#C/C=C\C#Cc1ccco1` (stereo not drawn), the IC50 result is “Not Active” in assay [1]; “Not Active” in assay [2]; “Not Active” in assay [3]; “Not Active” in [4]; 500 µM in assay [5] (setting [12]). In addition, the “inhibition (INH)” value was greater than 75% in assay [6]; greater than 75% in assay [7]; greater than 75% in assay [8]; greater than 75% in assay [9]; 25% in assay [10].
As for `CCCCC#C/C=C\C#CCCCCCCC(O)C(=O)O` (stereo not drawn), the IC50 entry in [1] is “Not Active”; in assay [2] it was “Not Active”; in assay [3], “Not Active”; in [4], “Not Active”; in assay [5] (setting [12]), 500 µM. The “inhibition (INH)” value in assay [6], in assay [7], in assay [8] and in assay [9] was greater than 75% each time.
Take `CCCCCC#C/C=C\C#CCCCCCC(O)C(=O)O` (stereo not drawn): the IC50 entry in assay [1], in assay [2], in assay [3], in [4] and in assay [5] was “Not Active” each time. The “inhibition (INH)” value is on record as greater than 75% in assay [6], greater than 75% in assay [7], 50% in [8] and greater than 75% in assay [9].
For the compound `CCCC#C/C=C\C#CCCCCCC(O)C(=O)O` (stereo not drawn), the 50% inhibitory concentration (IC50) result in [1], in assay [2], in assay [3], in assay [4] and in assay [5] was “Not Active” each time. Moreover, the “inhibition (INH)” value is greater than 75% in assay [6], greater than 75% in assay [7], 50% in assay [8] and greater than 75% in assay [9].
On to `CCCCC#CC#C/C=C\CCCCCCC(O)C(=O)O` (stereo not drawn), for which the IC50 result in [1], in assay [2], in assay [3], in [4] and in [5] was “Not Active” in each case. The “inhibition (INH)” value is recorded as 25% in assay [6] and greater than 75% in assay [7].
As to `CCCCC#CC#C/C=C/CCCCCCC(O)C(=O)O` (stereo not drawn), the IC50 in [1] (setting [13]) was 500 µM; in assay [2] (setting [11]) it was 500 µM; in assay [3] (setting [14]) it was 500 µM; in assay [4] (setting [15]), 500 µM; in assay [5] (setting [12]) it was 250 µM. Also, the “inhibition (INH)” value in assay [6] was 50%; in [7] it was greater than 75%; in [9], 25%.
Turning to `CCCCCC#CC#C/C=C/CCCCCC(O)C(=O)O` (stereo not drawn), the IC50 in [1] (setting [13]) was 500 µM; in assay [2] (setting [11]), 500 µM; in [3] (setting [14]), 500 µM; in assay [4] (setting [15]), 500 µM; in [5] (setting [12]), 2 µM. The “inhibition (INH)” value was greater than 75% in assay [7], 25% in assay [8], 50% in assay [9] and greater than 75% in assay [10].
Consider `CCCCC/C=C\C#CC#CCCCCCC(O)C(=O)O` (stereo not drawn), for which the IC50 result in assay [1] is “Not Active”; in assay [2] (setting [11]), 500 µM; in assay [3] (setting [14]) it was 1000 µM; in assay [4] (setting [15]), 1000 µM; in assay [5] (setting [12]) it was 2 µM. The “inhibition (INH)” value in assay [6], in [7], in [8] and in [9] was greater than 75% each time.
In the case of `CCCCCC#CC#CC#CCCCCCC(O)C(=O)O` (stereo not drawn), the half-maximal inhibitory concentration (IC50) result was “Not Active” in [1]; 500 µM in assay [2] (setting [11]); 500 µM in [3] (setting [14]); 500 µM in assay [4] (setting [15]); 2 µM in assay [5] (setting [12]). The “inhibition (INH)” value in [6] was greater than 75%; in [7] it was greater than 75%; in assay [8] it was greater than 75%; in assay [9], 50%.
On to `CCCC#CC#CC#CCCCCCC(O)C(=O)O` (stereo not drawn), for which the IC50 in [1] (setting [13]) was determined as 500 µM; in assay [2] (setting [11]) it was 500 µM; in assay [3] (setting [14]), 500 µM; in assay [4] (setting [15]), 500 µM; in assay [5] (setting [12]) it was 125 µM. Also, the “inhibition (INH)” value in assay [6], in assay [7], in assay [8] and in [9] was greater than 75% each time.
